As a reminder, the IC50 is the point on the concentration scale where inhibition reaches its midpoint. A high value points to lower potency. Broadly, the Emax is the greatest response seen or fitted, relative to the assay's reference. A word on the ED50: it is the midpoint of the dose-response relation.

SMILES strings stand for the structures. Read-outs that look alike come from different tables or passages of the source.

The target in one data set is human mGlu2 receptor (Homo sapiens, UniProt Q14416). Kind of data set: [35S]GTPγS binding assay, negative allosteric modulation of mGluR2.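 For all read-outs here: membranes from CHO cells expressing the receptor, compound with glutamate near EC80 (60 µM), 30 min preincubation then 30 min label uptake at 30 °C, percent of control glutamate response.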 Particulars: for Emax: read-out: GTPγS - hmGluR2 anGT Emax.
Another data set relates to rats. The data set can be described thus: Reversal of the effect of the mGluR2 PAM JNJ-42153605-induced inhibition of scopolamine-induced hyperlocomotion. Type of data set: in vivo, rat. Particulars: for ED50: rat, route PO (route cell empty for Co. No. 22, 25, 18, 19, 29), criterion total distance >1500 cm, read-out: ED50 SCOP JNJ-42153605. The protocol:
2) Reversal of the Effect of the mGluR2 PAM JNJ-42153605-Induced Inhibition of Scopolamine-Induced Hyperlocomotion Apparatus
Motor activity was measured in microprocessor-based motor activity arenas (closed gray PVC cylinders with a height of 39 cm and a diameter of 31 cm). Each arena was placed on an infrared LED (8×8 LEDs) lit box (white PVC squared box; 40×40 cm^2; height 12.5 cm. An infrared-sensitive tube camera and a white light source were mounted to the ceiling above the observation chamber to track the animal. The total distance traveled (cm) was recorded and analyzed using the Noldus Ethovision XT Video Tracking System (Version 7.0.418; Noldus, Wageningen, The Netherlands). The intensity of the light within the activity cages (measured in the centre at the level of the floor) ranged between 4 and 8 LUX.
The rats were pretreated with test compound or vehicle at 60 min before the start of the activity recordings and placed into individual cages. The rats were challenged with JNJ-42153605 (3-(cyclopropylmethyl)-7-(4-phenylpiperidin-1-yl)-8-(trifluoromethyl)-[1,2,4]triazolo[4,3-a]pyridine; WO2010/130424; Cid et al. J. Med. Chem. 2012, 55, 8770-8789) (20 mg/kg, i.v.) 30 min before the start of the activity recording combined with scopolamine (0.16 mg/kg, i.v.) just before the start of the activity measurements. Immediately after the injection of scopolamine, the rats were placed into the activity monitors and total distance travelled over the first 30 min was measured.
Solvent-Pretreated Control Rats.
For reversal of the inhibitory effect of JNJ-42153605 on the scopolamine-induced hyperlocomotion, the following all-or-none criteria were adopted: (1) reversal: total distance >1500 cm.

A short description of another data set: Induction of mydriasis. Particulars: Wiga, in vivo, rat, route PO; for ED50: maximum pupil diameter >25 units over 1, 2 or 3 h post-administration, read-out: ED50 MYD Test 2. The protocol:
3) Induction of Mydriasis
The pupil diameter of Wiga rats was measured with a microscopic micrometer (1 unit= 1/24 mm). Criteria for drug-induced effects: pupil diameter >25 units for mydriasis (in controls: 1.9%) 1 h post-administration of the test compound (test 1) or 1, 2 or 3 h post-administration of the test compound (test 2, wherein the maximum pupil diameter over the full 3 h period is reported).

The subject of data set [1] is apomorphine-challenged rats. Kind of data set: Reversal of LY-404039-induced decrease of palpebral opening in apomorphine-challenged rats. Type of data set: in vivo, rat. Conditions: for ED50: rat, criterion cumulative palpebral opening score >26, read-out: ED50 APO LY-404039. Here is the method:
B) In Vivo Pharmacology 1) Reversal of LY-404039-Induced Decrease of Palpebral Opening in Apomorphine-Challenged Rats.
Male Wiga Wistar rats (Crl:WI; Charles River Germany; 220±40 g) were housed under standard laboratory conditions (21±2° C.; 50-65% relative humidity; light-dark cycle set at 12 h; lights on at 6.00 h) and fasted overnight prior to the start of the experiments (tap water remained available ad libitum). During the test period, they were housed in individual cages. Palpebral opening was scored every 5 min over the first hour after injection of apomorphine (1.0 mg/kg, i.v.) in animals either pretreated or not pretreated with LY-404039 (2.5 mg/kg, s.c.) at 1 h prior to the apomorphine injection. The animals were also pretreated with test compound or solvent at a predefined interval before apomorphine challenge. The score system was: (5) exophthalmos, (4) wide open, (3) open for three-quarters, (2) half open, (1) open for one-quarter, (0) closed. The scores for palpebral opening were cumulated over the 60-min observation period.

Setting [2] is: control rats, scores cumulated over 60 min.
[3] abbreviates: historical solvent-pretreated control rats, first 30 min.

Sequence of human mGlu2 receptor (Q14416 19-872): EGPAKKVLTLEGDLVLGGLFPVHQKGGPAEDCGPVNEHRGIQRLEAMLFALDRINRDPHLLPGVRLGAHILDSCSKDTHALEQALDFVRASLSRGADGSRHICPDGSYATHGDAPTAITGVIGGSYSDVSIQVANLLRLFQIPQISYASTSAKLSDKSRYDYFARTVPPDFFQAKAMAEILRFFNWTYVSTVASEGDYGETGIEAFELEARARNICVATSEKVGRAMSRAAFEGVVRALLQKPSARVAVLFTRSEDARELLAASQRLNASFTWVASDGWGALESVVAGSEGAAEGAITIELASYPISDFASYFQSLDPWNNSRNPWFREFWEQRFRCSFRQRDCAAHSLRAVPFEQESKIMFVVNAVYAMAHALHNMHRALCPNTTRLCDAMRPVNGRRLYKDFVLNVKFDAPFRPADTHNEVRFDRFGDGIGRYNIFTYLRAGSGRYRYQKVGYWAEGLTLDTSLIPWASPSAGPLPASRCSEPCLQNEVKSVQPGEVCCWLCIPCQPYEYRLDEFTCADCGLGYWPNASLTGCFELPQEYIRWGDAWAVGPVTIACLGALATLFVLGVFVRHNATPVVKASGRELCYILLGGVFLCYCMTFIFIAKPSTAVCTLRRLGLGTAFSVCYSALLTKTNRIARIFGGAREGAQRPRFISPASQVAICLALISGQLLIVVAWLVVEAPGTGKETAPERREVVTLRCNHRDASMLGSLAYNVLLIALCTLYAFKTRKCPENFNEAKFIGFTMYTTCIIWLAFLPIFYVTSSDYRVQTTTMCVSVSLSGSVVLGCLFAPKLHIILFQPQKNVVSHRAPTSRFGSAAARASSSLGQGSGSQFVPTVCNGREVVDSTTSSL
Description for human mGlu2 receptor: Here we describe the use of the [^35S]GTPγS binding assay using membranes from cells transfected with the human mGlu2 receptor and adapted from Schaffhauser et al. (Molecular Pharmacology, 2003, 4:798-810) for the detection of the negative allosteric modulation (NAM) properties of the compounds of this invention.
CHO-cells were cultured to pre-confluence and stimulated with 5 mM butyrate for 24 h. Cells were then collected by scraping in PBS and cell suspension was centrifuged (10 min at 4000 RPM in benchtop centrifuge). Supernatant was discarded and pellet gently resuspended in 50 mM Tris-HCl, pH 7.4 by mixing with an Ultra Turrax homogenizer. The suspension was centrifuged at 12,400 RPM (Sorvall F14S-6x250Y) for 10 minutes and the supernatant discarded. The pellet was homogenized in 5 mM Tris-HCl, pH 7.4 using an Ultra Turrax homogenizer and centrifuged again (13,000 RPM, 20 min, 4° C.). The final pellet was resuspended in 50 mM Tris-HCl, pH 7.4 and stored at −80° C. in appropriate aliquots before use. Protein concentration was determined by the Bradford method (Bio-Rad, USA) with bovine serum albumin as standard.
Measurement of mGluR2 negative allosteric modulatory activity of test compounds was performed as follows. Test compounds and glutamate were diluted in assay buffer containing 10 mM HEPES acid, 10 mM HEPES salt, pH 7.4, 100 mM NaCl, 3 mM MgCl2 and 10 μM GDP. Human mGlu2 receptor-containing membranes were thawed on ice and diluted in assay buffer supplemented with 18 μg/ml saponin. Membranes were pre-incubated with compound together with a predefined (˜EC80) concentration of glutamate (60 μM) for 30 min at 30° C. After addition of [^35S]GTPγS (f.c. 0.1 nM), assay mixtures were shaken briefly and further incubated to allow [^35S]GTPγS incorporation on activation (30 minutes, 30° C.). Final assay mixtures contained 7 μg of membrane protein in 10 mM HEPES acid, 10 mM HEPES salt, pH 7.4, 100 mM NaCl, 3 mM MgCl2, 10 μM GDP and 10 μg/ml saponin. Total reaction volume was 200 μl. Reactions were terminated by rapid filtration through Unifilter-96 GF/B plates (Perkin Elmer, Massachusetts, USA) using a 96-well filtermate universal harvester. Filters were washed 6 times with ice-cold 10 mM NaH2PO4/10 mM Na2HPO4, pH 7.4. Filters were then air-dried and 30 μl of liquid scintillation cocktail (Microscint-O) was added to each well. Membrane-bound radioactivity was counted in a Topcount.
Data were calculated as % of the control glutamate response, defined as the response that is generated upon addition of an EC80-equivalent concentration of glutamate. Sigmoid concentration-response curves plotting these percentages versus the log concentration of the test compound were analyzed using non-linear regression analysis. The concentration producing half-maximal inhibition was calculated as the IC50. The pIC50 values were calculated as the −log IC50, when the IC50 is expressed in M. Emax is defined as the relative maximal effect (i.e. maximal % inhibition relative to the control glutamate response).

For `C[C@H]1CN(c2ccc(C(F)(F)F)cn2)C(=O)c2c(C#Cc3ccc(N)nc3)cnn21` [compound 4], at human mGlu2 receptor, the IC50 was 2.4 nM and the Emax was 103%.
Regarding `C[C@H]1CN(c2ccc(C(F)(F)F)c(Cl)c2)C(=O)c2c(C#Cc3cnc(N)cc3CO)cnn21` [compound 22], in the data set with rats, the ED50 was over 0.63 mg/kg. Further, at human mGlu2 receptor, the IC50 was 0.832 nM and the Emax is 106%.
As to `CNc1ncccc1C#Cc1cnn2c1C(=O)N(c1ccc(C(F)(F)F)cc1)C[C@@H]2C` [compound 24], at human mGlu2 receptor, the 50% inhibitory concentration (IC50) was 15.8 nM and the Emax amounted to 99%.
`C[C@H]1CN(c2ccc(C(F)(F)F)cc2)C(=O)c2c(C#Cc3cncc(CO)c3)cnn21` [compound 28]: at human mGlu2 receptor, the IC50 was 53.7 nM and the Emax stood at 101%.
On the same counts, the results for `COc1nc(N2C[C@H](C)n3ncc(C#Cc4ccc(N)nc4)c3C2=O)ccc1C(F)(F)F` [compound 33] are 2.51 nM and 109%.
For `C[C@H]1CN(c2ccc(C(F)(F)F)cc2)C(=O)c2c(C#Cc3ccc(N)nc3)cnn21` [compound 1], the ED50 was over 40 mg/kg in “Induction of mydriasis”, 0.17 mg/kg with rats, 0.08 mg/kg in data set [1] (route PO) and 0.06 mg/kg in data set [1] (route SC). Also, the median effective dose (ED50) at 1 h in the data set “Induction of mydriasis” (pupil diameter >25 units 1 h post-administration, read-out: ED50 MYD Test 1) was over 10 mg/kg. Besides, the half-maximal inhibitory concentration (IC50) at human mGlu2 receptor was 1.58 nM. Besides, the Emax on human mGlu2 receptor is 106%.
Take `C[C@H]1CN(c2ccc(C(F)(F)F)c(F)c2)C(=O)c2c(C#Cc3ccc(N)nc3)cnn21` [compound 18]: the ED50 with rats was 0.13 mg/kg. Further, on human mGlu2 receptor, the concentration for half-maximal inhibition (IC50) was 2.69 nM and the maximal response (Emax) was determined as 107%.
In the case of `C[C@H]1CN(c2ccc(C(F)C(F)(F)F)cc2)C(=O)c2c(C#Cc3ccc(N)nc3)cnn21` (some centres unmarked) [compound 16], on human mGlu2 receptor, the 50% inhibitory concentration (IC50) was 7.08 nM and the maximal response (Emax) amounted to 104%.
On the same counts, the results for `C[C@H]1CN(c2ccc(Cl)c(Cl)c2)C(=O)c2c(C#Cc3ccc(N)nc3)cnn21` [compound 2] are 1.12 nM and 105%.
In the case of `C[C@H]1CN(c2ccc(C(F)(F)F)cc2)C(=O)c2c(C#Cc3cccnc3N)cnn21` [compound 17], on human mGlu2 receptor, the IC50 is 14.8 nM and the Emax came to 105%.
In the case of `CN1CCc2cccc3c2[C@H]1Cc1ccc(O)c(O)c1-3` [Apomorphine alone, apomorphine], in data set [1] (control rats, apomorphine 1.0 mg/kg i.v., LY-404039 2.5 mg/kg s.c., scores cumulated over 60 min), the “Palpebral opening score, Median score” value was 43. In addition, in data set [1] (setting [2]), the “Palpebral opening score, Occurrence score >26 (%)” value stood at 99.5% and the “Palpebral opening score, Occurrence score >34 (%)” value was 95.9%. Further, in data set [1] (control rats, scores cumulated over 60 min, listed as apomorphine alone), the “Palpebral opening score, Occurrence score >34 (%)” value stood at 95.5%.
Regarding `C[C@H]1CN(c2ccc(C(F)(F)F)cc2)C(=O)c2c(C#Cc3cccc(S(=O)(=O)F)c3)cnn21` [compound 34], on human mGlu2 receptor, the half-inhibitory concentration (IC50) was 14.5 nM and the Emax came to 110%.
The corresponding values for `COCc1cc(C#Cc2cnn3c2C(=O)N(c2ccc(C(F)(F)F)cc2)C[C@@H]3C)cnc1N` [compound 20] are 24 nM and 102%.
As to `C[C@H]1CN(c2ccc(C(F)(F)F)c(Cl)c2)C(=O)c2c(C#Cc3ccc(N)nc3)cnn21` [compound 13], the median effective dose (ED50) in “Induction of mydriasis” is over 40 mg/kg. For the same compound, the ED50 with rats was 0.028 mg/kg. Besides, at human mGlu2 receptor, the concentration for half-maximal inhibition (IC50) was 1.1 nM and the Emax was 108%.
Turning to `C[C@H]1CN(c2ccc(C(F)(F)F)cc2)C(=O)c2c(C#Cc3ccnc(N)c3)cnn21` [compound 10], on human mGlu2 receptor, the IC50 was 10 nM and the Emax was determined as 105%.
Regarding `C[C@H]1CN(c2ccc(C(F)(F)F)cc2)C(=O)c2c(C#Cc3cnc(N)cc3CO)cnn21` [compound 29], the ED50 with rats is over 0.63 mg/kg. For the same compound, on human mGlu2 receptor, the IC50 is 2.95 nM and the Emax came out at 106%.
With `COc1ccc(C#Cc2cnn3c2C(=O)N(c2ccc(Cl)c(Cl)c2)C[C@@H]3C)cn1` [compound 6], on human mGlu2 receptor, the IC50 was 5.62 nM and the maximal response (Emax) came out at 106%.
Regarding `C[C@H]1CN(c2ccc(C(F)(F)F)cc2)C(=O)c2c(C#Cc3cncc(CF)c3)cnn21` [compound 26], at human mGlu2 receptor, the IC50 was 37.2 nM and the Emax amounted to 108%.
The corresponding values for `C[C@H]1CN(c2ccc(C(F)(F)F)cc2)C(=O)c2c(C#Cc3cnc(N)cc3CF)cnn21` [compound 23] are 2.75 nM and 106%.
In the case of `CNc1ccc(C#Cc2cnn3c2C(=O)N(c2ccc(C(F)(F)F)c(Cl)n2)C[C@@H]3C)cn1` [compound 31], on human mGlu2 receptor, the IC50 was 8.71 nM and the Emax turned out to be 111%.
As to `C[C@H]1CN(c2ccc(C(F)(F)F)c(CF)n2)C(=O)c2c(C#Cc3ccc(N)nc3)cnn21` [compound 19], in the data set with rats, the ED50 was over 0.63 mg/kg. Besides, on human mGlu2 receptor, the IC50 was 2.14 nM and the Emax came to 104%.
With `CN1[C@@H]2C[C@@H](OC(=O)[C@H](CO)c3ccccc3)C[C@H]1[C@@H]1O[C@@H]12` [Scopolamine, scopolamine, reference compound], in the data set on rats (setting [3]), the “Total distance >1500 cm (%)” value is recorded as 100%; the “Total distance >4400 cm (%)” value was found to be 95.8%; the “Total distance travelled, Median (cm)” value came to 7246 cm.
In the case of `COCc1cncc(C#Cc2cnn3c2C(=O)N(c2ccc(C(F)(F)F)cc2)C[C@@H]3C)c1` [compound 27], on human mGlu2 receptor, the IC50 was 97.7 nM and the Emax came out at 106%.
`COCc1cc(N)ncc1C#Cc1cnn2c1C(=O)N(c1ccc(C(F)(F)F)cc1)C[C@@H]2C` [compound 25]: the ED50 in the data set on rats stood at 0.08 mg/kg. For the same compound, at human mGlu2 receptor, the IC50 is 2.24 nM and the maximal response (Emax) was determined as 105%.
Take `C[C@H]1CN(c2ccc(C(F)(F)F)cc2)C(=O)c2c(C#Cc3ccccc3)cnn21` [compound 5]: at human mGlu2 receptor, the IC50 was 4.07 nM and the Emax came out at 105%.
Regarding `C[C@H]1CN(c2ccc(Cl)c(Cl)c2)C(=O)c2c(C#Cc3ccc(N(C)C)nc3)cnn21` [compound 12], at human mGlu2 receptor, the half-inhibitory concentration (IC50) is 33.1 nM and the maximum response (Emax) came out at 107%.
`C[C@H]1CN(c2ccc(C(F)(F)F)cc2)C(=O)c2c(C#Cc3ccc(S(=O)(=O)F)cc3)cnn21` [compound 35]: at human mGlu2 receptor, the IC50 was 42.7 nM and the Emax is 108%.
Consider `C[C@H]1CN(c2ccc(C(F)(F)F)cc2)C(=O)c2c(C#Cc3cnc(N)c(CF)c3)cnn21` [compound 21], for which, on human mGlu2 receptor, the IC50 is 41.7 nM and the Emax came to 102%.
On the same counts, the results for `Cc1ccc(C#Cc2cnn3c2C(=O)N(c2ccc(C(F)(F)F)cc2)C[C@@H]3C)cn1` [compound 11] are 10.2 nM and 103%.
On the same counts, the results for `C[C@H]1CN(c2ccc(Cl)c(Cl)c2)C(=O)c2c(C#Cc3ccc(F)nc3)cnn21` [compound 7] are 6.76 nM and 105%.
The corresponding values for `CNc1ccc(C#Cc2cnn3c2C(=O)N(c2ccc(C(F)(F)F)c(OC)n2)C[C@@H]3C)cn1` [compound 32] are 9.33 nM and 106%.
As for `CNc1ccc(C#Cc2cnn3c2C(=O)N(c2ccc(Cl)c(Cl)c2)C[C@@H]3C)cn1` [compound 3], on human mGlu2 receptor, the IC50 is 2.24 nM and the Emax amounted to 105%.
The corresponding values for `Cc1cc(C#Cc2cnn3c2C(=O)N(c2ccc(C(F)(F)F)cc2)C[C@@H]3C)ccn1` [compound 9] are 8.71 nM and 107%.
As for `COc1ccc(N2C[C@H](C)n3ncc(C#Cc4ccc(N)nc4)c3C2=O)cc1Cl` [compound 8], at human mGlu2 receptor, the IC50 is 8.51 nM and the Emax stood at 107%.

The record behind these values is patent US10112949B2, “6,7-dihydropyrazolo[1,5-a]pyrazin-4(5H)-one compounds and their use as negative allosteric modulators of mGluR2 receptors” (Janssen Pharmaceutica NV, priority 2014, dated 2018).
